Columns and labels:
Assay type in all cases: in vivo
[1] = test system: barnyardgrass (Echinochloa crus-galli); experiment: Test G Post-Emergence Protocol; settings: Echinochloa crus-galli, post-emergence, 312 h; for pest or weed control at 15.625 g/ha: 15.625 g ai/ha, evaluated after 13 days (100=total damage to plant; 0=no damage to plant), read-out: Barnyardgrass damage rating; for pest or weed control at 62.5 g/ha: 62.5 g ai/ha, read-out: Barnyardgrass damage rating (100=total damage to plant; 0=no damage to plant); for pest or weed control at 62.5 g/ha / pest or weed control at 250 g/ha: evaluated after 13 days; for pest or weed control at 250 g/ha: 250 g ai/ha, read-out: damage to plant, Barnyardgrass (100=total damage to plant; 0=no damage to plant)
How it was run: (§1)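 Scores run 0 (no damage) to 100 (total damage) and were taken 13 days after spraying. Plants had been raised in pots for 8 days under glasshouse control (24/16 °C, 14 h photoperiod, 65% humidity) and then treated at 15.625, 62.5 or 250 g/ha.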

[2] = test system: redroot pigweed (Amaranthus retroflexus); experiment: Test G Post-Emergence Protocol; settings: Amaranthus retroflexus, post-emergence, 312 h; for pest or weed control at 15.625 g/ha: 15.625 g ai/ha, evaluated after 13 days (100=total damage to plant; 0=no damage to plant), read-out: Pigweed, Redroot damage rating; for pest or weed control at 62.5 g/ha: 62.5 g ai/ha, read-out: Pigweed, Redroot damage rating (100=total damage to plant; 0=no damage to plant); for pest or weed control at 62.5 g/ha / pest or weed control at 250 g/ha: evaluated after 13 days; for pest or weed control at 250 g/ha: 250 g ai/ha, read-out: damage to plant, Pigweed, Redroot (100=total damage to plant; 0=no damage to plant)
How it was run: as §1

[3] = test system: corn (Zea mays); experiment: Test G Post-Emergence Protocol; settings: Zea mays, post-emergence, 312 h; for plant injury at 15.625 g/ha: 15.625 g ai/ha, evaluated after 13 days (100=total damage to plant; 0=no damage to plant), read-out: Corn damage rating; for plant injury at 62.5 g/ha: 62.5 g ai/ha, read-out: Corn damage rating (100=total damage to plant; 0=no damage to plant); for plant injury at 62.5 g/ha / plant injury at 250 g/ha: evaluated after 13 days; for plant injury at 250 g/ha: 250 g ai/ha, read-out: damage to plant, Corn (100=total damage to plant; 0=no damage to plant)
How it was run: as §1

[4] = test system: ivy-leaved morning glory (Ipomoea hederacea); experiment: Test G Post-Emergence Protocol; settings: Ipomoea, post-emergence, 312 h; for pest or weed control at 15.625 g/ha: 15.625 g ai/ha, evaluated after 13 days (100=total damage to plant; 0=no damage to plant), read-out: Morningglory, Ivy-leaved damage rating; for pest or weed control at 62.5 g/ha: 62.5 g ai/ha, read-out: Morningglory, Ivy-leaved damage rating (100=total damage to plant; 0=no damage to plant); for pest or weed control at 62.5 g/ha / pest or weed control at 250 g/ha: evaluated after 13 days; for pest or weed control at 250 g/ha: 250 g ai/ha, read-out: damage to plant, Morningglory, Ivy-leaved (100=total damage to plant; 0=no damage to plant)
How it was run: as §1

[5] = test system: velvetleaf (Abutilon theophrasti); experiment: Test G Post-Emergence Protocol; settings: Abutilon theophrasti, post-emergence, 312 h; for pest or weed control at 15.625 g/ha: 15.625 g ai/ha, evaluated after 13 days (100=total damage to plant; 0=no damage to plant), read-out: Velvetleaf damage rating; for pest or weed control at 62.5 g/ha: 62.5 g ai/ha, read-out: Velvetleaf damage rating (100=total damage to plant; 0=no damage to plant); for pest or weed control at 62.5 g/ha / pest or weed control at 250 g/ha: evaluated after 13 days; for pest or weed control at 250 g/ha: 250 g ai/ha, read-out: damage to plant, Velvetleaf (100=total damage to plant; 0=no damage to plant)
How it was run: as §1

[6] = test system: giant foxtail (Setaria faberi); experiment: Test G Post-Emergence Protocol; settings: Setaria faberi, post-emergence, 312 h; for pest or weed control at 15.625 g/ha: 15.625 g ai/ha, evaluated after 13 days (100=total damage to plant; 0=no damage to plant), read-out: Foxtail, Giant damage rating; for pest or weed control at 62.5 g/ha: 62.5 g ai/ha, read-out: Foxtail, Giant damage rating (100=total damage to plant; 0=no damage to plant); for pest or weed control at 62.5 g/ha / pest or weed control at 250 g/ha: evaluated after 13 days; for pest or weed control at 250 g/ha: 250 g ai/ha, read-out: damage to plant, Foxtail, Giant (100=total damage to plant; 0=no damage to plant)
How it was run: as §1

[7] = test system: barnyardgrass (Echinochloa crus-galli); experiment: Test G Pre-Emergence Protocol; settings: Echinochloa crus-galli, pre-emergence, 312 h, evaluated after 13 days; for pest or weed control at 15.625 g/ha: 15.625 g ai/ha, read-out: Barnyard grass damage rating (100=total damage to plant; 0=no damage to plant); for pest or weed control at 62.5 g/ha: 62.5 g ai/ha, 100=total damage to plant, 0=no damage to plant, read-out: plant damage rating, Barnyardgrass; for pest or weed control at 250 g/ha: 250 g ai/ha, read-out: Barnyardgrass damage rating (100=total damage to plant; 0=no damage to plant)
How it was run: (§2)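 One day after sowing, pots are treated with a spray of test compound formulated in acetone/water 50:50 plus 0.5% Tween 20, giving 15.625, 62.5 or 250 g/ha. Evaluation on a 0–100 damage scale follows 13 days of glasshouse growth.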

[8] = test system: redroot pigweed (Amaranthus retroflexus); experiment: Test G Pre-Emergence Protocol; settings: Amaranthus retroflexus, pre-emergence, 312 h, evaluated after 13 days; for pest or weed control at 15.625 g/ha: 15.625 g ai/ha; for pest or weed control at 15.625 g/ha / pest or weed control at 250 g/ha: read-out: Pigweed, Redroot damage rating (100=total damage to plant; 0=no damage to plant); for pest or weed control at 62.5 g/ha: 62.5 g ai/ha, 100=total damage to plant, 0=no damage to plant, read-out: plant damage rating, Pigweed, Redroot; for pest or weed control at 250 g/ha: 250 g ai/ha
How it was run: as §2

[9] = test system: corn (Zea mays); experiment: Test G Pre-Emergence Protocol; settings: Zea mays, pre-emergence, 312 h, evaluated after 13 days; for plant injury at 15.625 g/ha: 15.625 g ai/ha; for plant injury at 15.625 g/ha / plant injury at 250 g/ha: read-out: Corn damage rating (100=total damage to plant; 0=no damage to plant); for plant injury at 62.5 g/ha: 62.5 g ai/ha, 100=total damage to plant, 0=no damage to plant, read-out: plant damage rating, Corn; for plant injury at 250 g/ha: 250 g ai/ha
How it was run: as §2

[10] = test system: ivy-leaved morning glory (Ipomoea hederacea); experiment: Test G Pre-Emergence Protocol; settings: Ipomoea, pre-emergence, 312 h, evaluated after 13 days; for pest or weed control at 15.625 g/ha: 15.625 g ai/ha, read-out: Morning-glory, Ivy-leaved damage rating (100=total damage to plant; 0=no damage to plant); for pest or weed control at 62.5 g/ha: 62.5 g ai/ha, 100=total damage to plant, 0=no damage to plant, read-out: plant damage rating, Morningglory, Ivy-leaved; for pest or weed control at 250 g/ha: 250 g ai/ha, read-out: Morningglory, Ivy-leaved damage rating (100=total damage to plant; 0=no damage to plant)
How it was run: as §2

[11] = test system: velvetleaf (Abutilon theophrasti); experiment: Test G Pre-Emergence Protocol; settings: Abutilon theophrasti, pre-emergence, 312 h, evaluated after 13 days; for pest or weed control at 15.625 g/ha: 15.625 g ai/ha; for pest or weed control at 15.625 g/ha / pest or weed control at 250 g/ha: read-out: Velvetleaf damage rating (100=total damage to plant; 0=no damage to plant); for pest or weed control at 62.5 g/ha: 62.5 g ai/ha, 100=total damage to plant, 0=no damage to plant, read-out: plant damage rating, Velvetleaf; for pest or weed control at 250 g/ha: 250 g ai/ha
How it was run: as §2

[12] = test system: giant foxtail (Setaria faberi); experiment: Test G Pre-Emergence Protocol; settings: Setaria faberi, pre-emergence, 312 h, evaluated after 13 days; for pest or weed control at 15.625 g/ha: 15.625 g ai/ha; for pest or weed control at 15.625 g/ha / pest or weed control at 250 g/ha: read-out: Foxtail, Giant damage rating (100=total damage to plant; 0=no damage to plant); for pest or weed control at 62.5 g/ha: 62.5 g ai/ha, 100=total damage to plant, 0=no damage to plant, read-out: plant damage rating, Foxtail, Giant; for pest or weed control at 250 g/ha: 250 g ai/ha
How it was run: as §2

| SMILES | pest or weed control at 15.625 g/ha [1] | pest or weed control at 62.5 g/ha [1] | pest or weed control at 250 g/ha [1] | pest or weed control at 15.625 g/ha [2] | pest or weed control at 62.5 g/ha [2] | pest or weed control at 250 g/ha [2] | plant injury at 15.625 g/ha [3] | plant injury at 62.5 g/ha [3] | plant injury at 250 g/ha [3] | pest or weed control at 15.625 g/ha [4] | pest or weed control at 62.5 g/ha [4] | pest or weed control at 250 g/ha [4] | pest or weed control at 15.625 g/ha [5] | pest or weed control at 62.5 g/ha [5] | pest or weed control at 250 g/ha [5] | pest or weed control at 15.625 g/ha [6] | pest or weed control at 62.5 g/ha [6] | pest or weed control at 250 g/ha [6] | pest or weed control at 15.625 g/ha [7] | pest or weed control at 62.5 g/ha [7] | also measured |
| --- | --- | --- | --- | --- | --- | --- | --- | --- | --- | --- | --- | --- | --- | --- | --- | --- | --- | --- | --- | --- | --- |
| CN1C[C@@H](c2ccc(C(F)(F)F)cc2)[C@H](C(=O)Nc2nnc(C(F)(F)F)[nH]2)C1=O (racemic) [Compound 1550] | 0% | 0% | 0% | 0% | 30% | 40% | 0% | 10% | 30% | 0% | 0% | 0% | 0% | 0% | 0% | 0% | 0% | 0% | 0% | 0% | pest or weed control at 250 g/ha [7]: 0%; pest or weed control at 15.625 g/ha [8]: 0%; pest or weed control at 62.5 g/ha [8]: 0%; pest or weed control at 250 g/ha [8]: 0%; plant injury at 15.625 g/ha [9]: 0%; plant injury at 62.5 g/ha [9]: 0%; plant injury at 250 g/ha [9]: 0%; pest or weed control at 15.625 g/ha [10]: 0%; pest or weed control at 62.5 g/ha [10]: 0%; pest or weed control at 250 g/ha [10]: 0%; pest or weed control at 15.625 g/ha [11]: 0%; pest or weed control at 62.5 g/ha [11]: 0%; pest or weed control at 250 g/ha [11]: 0%; pest or weed control at 15.625 g/ha [12]: 0%; pest or weed control at 62.5 g/ha [12]: 0%; pest or weed control at 250 g/ha [12]: 0% |
| CN1C[C@H](c2ccc(C(F)(F)F)cc2)[C@@H](C(=O)Nc2cnccc2O)C1=O (racemic) [Compound 1466] | 0% | 0% | 20% | 10% | 30% | 80% | 0% | 10% | 20% | 0% | 10% | 10% | 0% | 0% | 0% | 0% | 10% | 30% | 0% | 0% | pest or weed control at 250 g/ha [7]: 0%; pest or weed control at 15.625 g/ha [8]: 0%; pest or weed control at 62.5 g/ha [8]: 0%; pest or weed control at 250 g/ha [8]: 0%; plant injury at 15.625 g/ha [9]: 0%; plant injury at 62.5 g/ha [9]: 0%; plant injury at 250 g/ha [9]: 0%; pest or weed control at 15.625 g/ha [10]: 0%; pest or weed control at 62.5 g/ha [10]: 0%; pest or weed control at 250 g/ha [10]: 0%; pest or weed control at 15.625 g/ha [11]: 0%; pest or weed control at 62.5 g/ha [11]: 0%; pest or weed control at 250 g/ha [11]: 0%; pest or weed control at 15.625 g/ha [12]: 0%; pest or weed control at 62.5 g/ha [12]: 0%; pest or weed control at 250 g/ha [12]: 0% |

— patent US12077503B2, “Substituted cyclic amides and their use as herbicides” (FMC CORPORATION, priority 2015, dated 2024)
